Values joined by “and” are separate entries in the source; they are usually repeats but may differ in a detail not shown here. Equal values may be shown once.

This is an account of results in article PMC12487869, “Toward Imaging of the GABA Transporter Type 1 In Vivo: Quantitative Evaluation of 4 Novel PET Radiotracers in Nonhuman Primates” (Journal of Nuclear Medicine, 2025).

The target in one series is P-glycoprotein (PgP) (Homo sapiens, UniProt P08183). Kind of series: Efflux by P-glycoprotein. Type of series: in vitro ADME.
Series [1] in a line: Metabolite analysis of arterial plasma (unmetabolized parent fraction), column-switching HPLC. The format is in vivo, rhesus monkeys (Macaca mulatta). Particulars: mean ± SD. On the procedure:
Arterial blood samples were collected for each scan to measure the input function. Metabolite analysis was performed using an automatic column-switching high-performance liquid chromatography system ([22]) for 7 arterial blood samples collected at 5, 15, 30, 60, 90, 120, and 180 min. The radiometabolite-corrected arterial plasma input function was obtained by calculating the product of the fitted total plasma (fitted with a sum of exponentials) and unmetabolized parent fraction curves (using an integrated γ-function ([23])).

A short description of series [2]: Plasma free fraction (fp), ultrafiltration method. The format is in vitro ADME, rhesus monkeys (Macaca mulatta). The conditions noted are these: measured in triplicate per scan, mean ± SD. On the procedure:
The plasma free fraction (fp) for each scan was measured in triplicate using the ultrafiltration method and calculated as the ratio of radioactivity in the filtrate to that in the plasma ([24]).

The target in series [3] is T1, GAT-1 (Macaca mulatta, UniProt H9ELS5).
T1 construct: from tissue; host or cells: brain of living rhesus monkeys (in vivo PET)
The experiment in a line: PET brain imaging with kinetic modeling (1TCM), baseline and tiagabine blocking scans. Type of series: in vivo, rhesus monkeys (Macaca mulatta). The conditions noted are these: for Median VT across ROIs: 1TCM. As to the method:
Twenty scans were acquired from 4 rhesus monkeys (Macaca mulatta). Each monkey underwent baseline and blocking scans with ^18F-GATT-31, ^18F-GATT-34, ^18F-GATT-39, or ^18F-GATT-44 (Fig. 1) on a Focus-220 small-animal PET scanner (Siemens Healthineers).
(§1) Before each scan, each monkey was sedated with alfaxalone (2 mg/kg), midazolam (0.3 mg/kg), and dexmedetomidine (0.01 mg/kg), and anesthesia was maintained with 1.5%–2.5% isoflurane. Heart rate, blood pressure, respiration rate, and oxygen saturation were monitored continuously. An intravenous line was placed in the saphenous or cephalic vein for delivery of the radiotracer, as well as tiagabine during blocking studies (0.5 mg/kg administered 19 ± 4 min before radiotracer injections). A catheter was placed in the radial or tibial artery for blood sampling.
Before injection, a transmission scan was acquired. Starting with injection of the radiotracer, PET emission data were acquired in list-mode format and binned into 45 frames (6 × 30 s, 3 × 1 min, 2 × 2 min, and 34 × 5 min).
For region-of-interest (ROI) definition, each PET image was registered to an in-house rhesus monkey anatomical MRI template using the concatenation of a rigid-body transformation between the summed PET image (0–10 min) and corresponding monkey’s MRI (using the FMRIB Linear Image Registration Tool) and a nonlinear transformation matrix estimated between the monkey’s MRI and the MRI template (BioImage Suite software version 3.01). Regional time–activity curves were extracted for the following 11 ROIs: brain stem, caudate, cerebellum, cingulate cortex, frontal cortex, hippocampus, insula, occipital cortex, putamen, temporal cortex, and thalamus.
For each baseline and blocking scan, kinetic analysis was performed using a 1-tissue compartment model (1TCM), a reversible 2-tissue compartment model (2TCM; k4 > 0), and an irreversible 2-tissue compartment model (2TiCM; k4 = 0), including a blood volume fraction (Vb) term and a time-delay term. Vb was estimated for each time–activity curve using the whole-blood curve fitted with a sum of exponentials. The time delay (Δt) between the input function and the brain was estimated by fitting the first 10 min of the whole-brain time–activity curve to a 1TCM with 3 parameters: K1, Vb, and Δt (k2 was set to 0 because of the negligible radiotracer washout during the first 10 min). This estimated time delay value was then used in the time–activity curve fits. The primary parameters of interest were the influx constant (K1, expressed in microliters per minute per cubic centimeter, since values were low), the volume of distribution (VT, expressed in milliliters per cubic centimeter), and the net influx constant (Ki, expressed in milliliters per minute per cubic centimeter) for 2TiCM.

Series [4] has as its target T1, GAT-1. Kind of series: Occupancy plots from baseline and tiagabine blocking PET scans (occupancy, VND, BPND). Particulars: for VND: occupancy plot; for Occupancy: tiagabine 0.5 mg/kg occupancy measured with this radiotracer. The format is in vivo, rhesus monkeys (Macaca mulatta). As to the method: as §1
Occupancy plots ([26]) were used to estimate tiagabine occupancy and the nondisplaceable volume of distribution (VND). This VND value was used to compute the nondisplaceable binding potential (BPND = VT/VND − 1). To compare the performance between 2 radiotracers, a Guo plot ([27]) was created, using baseline VT values, to assess the relative affinity and BPND values of each radiotracer.

In series [5] the test system is GABAA receptor α5 subtype. Further details: method as in PMID 30102960, PMID 32578977. The conditions noted are these: cited from earlier work.
Series [6] relates to GAT-1. Further details: method as in PMID 10642842. Particulars: in vitro, human brain postmortem; cited from earlier work.
On the set-up of series [7]: method as in PMID 9530548. Particulars: humans, 24-mg single oral dose; cited from earlier work.
Series [8] can be described thus: Plasma tiagabine concentration by mass spectrometry. The format is in vivo, rhesus monkeys (Macaca mulatta). Particulars: 0.5 mg/kg tiagabine i.v.; 30–190 min after tiagabine injection. On the procedure: For 8 of the 10 blocking scans, venous blood samples were acquired at 30, 60, 90, 120, 160, and 190 min after injection of tiagabine, in addition to 1 control sample before tiagabine injection, to measure its concentration using mass spectrometry (described in the supplemental materials).

Another series deals with GABA. The conditions noted are these: vervet brain in vivo; cited from earlier work.
The mark [9] stands for this setting: after blocking with tiagabine 0.5 mg/kg.

T1 sequence (H9ELS5 1-599): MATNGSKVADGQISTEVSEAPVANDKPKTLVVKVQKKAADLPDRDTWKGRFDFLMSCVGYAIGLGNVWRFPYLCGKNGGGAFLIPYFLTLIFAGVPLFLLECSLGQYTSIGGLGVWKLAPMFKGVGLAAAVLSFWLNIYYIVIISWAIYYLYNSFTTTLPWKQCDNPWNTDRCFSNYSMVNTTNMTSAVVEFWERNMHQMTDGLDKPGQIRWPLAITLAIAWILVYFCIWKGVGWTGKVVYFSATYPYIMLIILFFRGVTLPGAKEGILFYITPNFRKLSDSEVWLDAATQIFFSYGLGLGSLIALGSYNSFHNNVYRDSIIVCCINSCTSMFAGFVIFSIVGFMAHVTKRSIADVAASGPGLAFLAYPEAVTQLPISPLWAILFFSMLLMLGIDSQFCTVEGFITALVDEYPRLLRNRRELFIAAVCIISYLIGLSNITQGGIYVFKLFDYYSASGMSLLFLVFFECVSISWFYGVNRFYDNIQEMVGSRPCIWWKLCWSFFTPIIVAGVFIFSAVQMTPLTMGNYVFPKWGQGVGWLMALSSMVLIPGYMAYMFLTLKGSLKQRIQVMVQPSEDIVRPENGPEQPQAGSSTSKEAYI
P-glycoprotein (PgP), sequence (P08183 whole entry): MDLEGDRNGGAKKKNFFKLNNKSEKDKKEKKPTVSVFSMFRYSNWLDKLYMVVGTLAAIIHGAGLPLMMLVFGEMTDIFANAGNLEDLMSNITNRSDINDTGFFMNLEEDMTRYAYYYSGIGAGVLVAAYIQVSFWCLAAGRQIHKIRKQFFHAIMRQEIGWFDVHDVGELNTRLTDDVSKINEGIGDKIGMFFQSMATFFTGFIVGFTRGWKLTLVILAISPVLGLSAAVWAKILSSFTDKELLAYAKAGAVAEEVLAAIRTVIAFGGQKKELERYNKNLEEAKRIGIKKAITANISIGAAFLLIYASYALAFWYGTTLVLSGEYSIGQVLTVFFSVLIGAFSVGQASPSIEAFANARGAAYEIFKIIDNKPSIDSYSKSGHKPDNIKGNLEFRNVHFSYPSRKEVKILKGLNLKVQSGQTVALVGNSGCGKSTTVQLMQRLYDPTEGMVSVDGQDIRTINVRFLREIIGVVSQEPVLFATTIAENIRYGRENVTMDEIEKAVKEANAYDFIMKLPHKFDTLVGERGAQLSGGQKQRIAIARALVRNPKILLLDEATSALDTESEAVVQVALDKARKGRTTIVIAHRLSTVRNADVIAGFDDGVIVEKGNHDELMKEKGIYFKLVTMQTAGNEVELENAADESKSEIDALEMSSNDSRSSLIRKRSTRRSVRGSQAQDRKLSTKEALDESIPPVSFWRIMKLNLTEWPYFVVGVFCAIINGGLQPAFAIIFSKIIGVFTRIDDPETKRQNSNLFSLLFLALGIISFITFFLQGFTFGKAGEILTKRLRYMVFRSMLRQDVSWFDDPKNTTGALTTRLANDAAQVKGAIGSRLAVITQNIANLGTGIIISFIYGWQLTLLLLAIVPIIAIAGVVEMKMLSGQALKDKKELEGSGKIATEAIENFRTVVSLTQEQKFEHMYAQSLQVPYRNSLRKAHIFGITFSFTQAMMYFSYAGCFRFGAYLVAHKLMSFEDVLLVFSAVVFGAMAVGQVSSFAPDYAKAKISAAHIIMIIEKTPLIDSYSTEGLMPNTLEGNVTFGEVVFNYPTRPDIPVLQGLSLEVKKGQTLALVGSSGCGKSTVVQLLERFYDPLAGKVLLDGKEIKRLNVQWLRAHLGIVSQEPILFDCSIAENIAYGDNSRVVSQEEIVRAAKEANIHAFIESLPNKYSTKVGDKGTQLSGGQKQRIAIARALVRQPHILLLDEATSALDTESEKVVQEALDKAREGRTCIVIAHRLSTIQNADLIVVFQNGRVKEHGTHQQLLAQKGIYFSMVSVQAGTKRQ

As to `Cc1ccccc1C(=COCCN1CCCC(C(=O)O)C1)c1ccccc1[18F]` (stereo not shown) [^18F-GATT-31], the “Efflux by PgP (category)” value at P-glycoprotein (PgP) was “low efflux by PgP”. Besides, the Parent compound in series [1] (30 min) was 87 ± 3%; in [1] (90 min) it was 76 ± 6%; in series [1] (180 min), 63% and 63 ± 11%. In addition, in series [2], the Free fraction is 12.4 ± 1.8%. Moreover, the “Median VT across ROIs” value is 1.5 mL/cm^3 at GAT-1 [3] (setting [9]) and 2.8 mL/cm^3 on GAT-1 [3] (baseline). The VND on GAT-1 [4] (monkey 1) was 0.31 mL/cm^3; at GAT-1 [4] (monkey 2), −0.61 mL/cm^3 and −0.61 ^* mL/cm^3; on GAT-1 [4] (monkey 3), 1.02 mL/cm^3. The Occupancy amounted to 69% on GAT-1 [4] (monkey 1), 22% on GAT-1 [4] (monkey 2) and 70% on GAT-1 [4] (monkey 3).

Turning to `Cc1ccccc1C(=COCCN1CCCC(C(=O)O)C1)c1ccc([18F])cc1` (stereo not shown) [^18F-GATT-34], the Parent compound was 91 ± 2% in [1] (30 min) and 83 ± 2% in series [1] (90 min). Moreover, the Free fraction in series [2] turned out to be 10.8 ± 0.4%. In addition, the “Median VT across ROIs” value is listed as 1.3 mL/cm^3 at GAT-1 [3] (setting [9]) and 1.5 mL/cm^3 on GAT-1 [3] (baseline). Moreover, the “Blocking effect of tiagabine on VT” value at GAT-1 [3] (tiagabine 0.5 mg/kg) is given as “small”.

As for `O=C(O)C1CCCN(CCC=C(c2ccccc2[18F])c2ccccc2Cl)C1` (stereo not shown) [^18F-GATT-39], the Parent compound in series [1] (30 min) came out at 95 ± 4%; in series [1] (90 min), 85 ± 9%. The same compound yielded a Free fraction in series [2] of 10.5 ± 1.0%. Further, the “K1 values” at GAT-1 [3] (1TCM influx constant) is recorded as “especially low”. Moreover, the figures for the “Median VT across ROIs” value on GAT-1 [3] (setting [9]) and at GAT-1 [3] (baseline) were 0.9 mL/cm^3 and 1.6 mL/cm^3, respectively.

As for `CCOC(=O)c1ncn2c1CN([11CH3])C(=O)c1cc(N=[N+]=[N-])ccc1-2` [[^11C]Ro15-4513], the “Affinity” value in [5] is on record as “high affinity”.

As for `Cc1ccsc1C(=CCCN1CCC[C@@H](C(=O)O)C1)c1sccc1C` [tiagabine, (R)-1-[4,4-bis(3-methyl-2-thienyl)-3-butenyl]-3-piperidinecarboxylic acid], the “Selectivity for GAT-1” value in the series with GAT-1 [6] was “excellent selectivity for GAT-1”. For the same compound, in series [7], the Elimination half-life was 7.3 h and the “Plasma concentration peak value” was 552 ng/mL. The compound further gave an Average plasma concentration in series [8] of 385 ± 70 µg/L. Further, in the series with GABA, the “Effect on GABA in brain” value is “increase GABA”.
